Test results: patent publication US10537103B2, “Antibacterial composition containing an isomer mixture of monosaccharide alkyl monoacetals or monoethers” (TEREOS STARCH & SWEETENERS BELGIUM, priority 2014, dated 2020)
Converted amounts (≈) assume the structure as drawn. Like-named read-outs stand apart in the source and are kept apart here.

Tests used:
[1] = tested on: Staphylococcus S. aureus strains (ATCC, methicillin-resistant, daptomycin-resistant); experiment: MIC on a wider panel of strains (Example 10), microdilution; type: cell-based
Experimental: (§1) The cultures studied, freshly isolated (after incubation on a blood agar at 37° C. for 18 h), are taken up in sterile water (10 mL) until obtaining a 0.5 McFarland (Mc) suspension i.e. 1 to 1 to 2×10^8 CFU (bacteria)/cm^3. The bacterial suspension was then diluted to obtain a final concentration of 1×10^6 CFU/cm^3.
(§2) Each well contains an identical quantity of Mueller-Hinton medium (a rich medium for bacterial culture) and bacteria with final [concentration of] 0.5×10^6 CFU/cm^3.
(§3) The test compounds of interest are solubilized in ethanol or DMSO at 25 mg/mL before being diluted to different concentrations two by two. On the multiwell plate, a first series has been planned comprising the culture medium without the test compound of interest. It corresponds to the growth control (control well). These controls serve as reference for comparing bacterial growth with that of the subsequent wells comprising different concentrations of the test compound of interest. The second series of wells comprises the mother solution for the test compound of interest for a concentration in the wells of 256 mg/L (7 mM). Each series of wells was diluted two by two until the last series for a final concentration of 0.25 mg/L (0.0007 mM). Each concentration is duplicated in the same plate. The plate is incubated for 18 h at 37° C. […] If there is antibacterial activity, the bacterial growth is inhibited, which means that no turbidity or bacterial residue is present.
(§4) The minimum inhibitory concentrations (MIC) are tested on Gram-positive bacterial strains according to the recommendations of the “Clinical Laboratory Standards Institute” (Clinical-Laboratory-Standards-Institute, 6th ed. Approved standard M100-S17. CLSI, Wayne, Pa., 2007). The clinical strains have been isolated in the Hospice de Lyon.
Staphylococci S. aureus: ATCC® 29213™, ATCC 25923,
as §1, with “At 10^8” for “1 to 1 to 2×10^8”, “10^6” for “1×10^6”

[2] = tested on: E. faecalis strains (ATCC 29212, 9901, 1801); experiment: as above; type: cell-based; conditions: Enterococcus faecalis, ATCC29212
Experimental: The cultures studied, freshly isolated (after incubation on a blood agar at 37° C. for 18 h), are taken up in sterile water (10 mL) until obtaining a 0.5 McFarland (Mc) suspension i.e. 1 to 1 to 2×10^8 CFU (bacteria)/cm^3. The bacterial suspension was then diluted to obtain a final concentration of 1×10^6 CFU/cm^3. Each well contains an identical quantity of Mueller-Hinton medium (a rich medium for bacterial culture) and bacteria with final [concentration of] 0.5×10^6 CFU/cm^3. The test compounds of interest are solubilized in ethanol or DMSO at 25 mg/mL before being diluted to different concentrations two by two. On the multiwell plate, a first series has been planned comprising the culture medium without the test compound of interest. It corresponds to the growth control (control well). These controls serve as reference for comparing bacterial growth with that of the subsequent wells comprising different concentrations of the test compound of interest. The second series of wells comprises the mother solution for the test compound of interest for a concentration in the wells of 256 mg/L (7 mM). Each series of wells was diluted two by two until the last series for a final concentration of 0.25 mg/L (0.0007 mM). Each concentration is duplicated in the same plate. The plate is incubated for 18 h at 37° C. […] If there is antibacterial activity, the bacterial growth is inhibited, which means that no turbidity or bacterial residue is present. The minimum inhibitory concentrations (MIC) are tested on Gram-positive bacterial strains according to the recommendations of the “Clinical Laboratory Standards Institute” (Clinical-Laboratory-Standards-Institute, 6th ed. Approved standard M100-S17. CLSI, Wayne, Pa., 2007). The clinical strains have been isolated in the Hospice de Lyon. Enterococci: E. faecalis (ATCC® 29212™), clinical enterococci strains E. faecalis isolated from urines: strain 015206179901 (hereinafter 9901), strain 015205261801 (hereinafter 1801) The cultures studied, freshly isolated (after incubation on a blood agar at 37° C. for 18 h), are taken up in sterile water (10 mL) until obtaining a 0.5 McFarland (Mc) suspension i.e. At 10^8 CFU (bacteria)/cm^3. The bacterial suspension was then diluted to obtain a final concentration of 10^6 CFU/cm^3.

[3] = tested on: E. faecium strains (CIP 103510, Van A, 1401); experiment: as above; type: cell-based; conditions: Enterococcus faecium, CIP103510
Experimental: as §1, §2, §3, §4
Enterococci: E. faecium (CIP 103510), clinical strains of Enterococci E. faecium: Van A 0151850763 (hereinafter Van A); strain 015 205731401 (hereinafter 1401),
as §1, with “At 10^8” for “1 to 1 to 2×10^8”, “10^6” for “1×10^6”

[4] = methicillin-resistant, HT 2002-0417, read-out: MIC S. aureus HT 2002-0417
[5] = methicillin-resistant, HT 2006-1004, read-out: MIC S. aureus HT 2006-1004
[6] = methicillin-resistant, LY 199-0053, read-out: MIC S. aureus LY 199-0053
[7] = methicillin-resistant, Lac-Deleo USA 300, read-out: MIC S. aureus USA 300
[8] = methicillin-resistant, MU 3, read-out: MIC S. aureus MU 3
[9] = strain ATCC 25923, read-out: MIC S. aureus ATCC 25923
[10] = strain ATCC 29213, read-out: MIC S. aureus ATCC 29213
[11] = E. faecalis ATCC 29212, read-out: MIC Enterococcus ATCC 29212
[12] = E. faecium CIP 103510, read-out: MIC Enterococcus CIP 103510
[13] = E. faecium clinical strain Van A 0151850763, read-out: MIC Enterococcus Van A

| MIC ([1]; Staphylococcus, all strains of Table 6, read-out: MIC, staphylococcus strains tested) | MIC [1, 4] | MIC ([1]; methicillin-resistant, HT 2004-0012, read-out: MIC S. aureus HT 2004-0012) | MIC [1, 5] | MIC [1, 6] | MIC [1, 7] | MIC [1, 8] | MIC [1, 9] | MIC [1, 10] | MIC [2, 11] | MIC [3, 12] | MIC [3, 13] | melting point | MIC ([1]; daptomycin-resistant, ST 2014 1288, read-out: MIC S. aureus ST 2014 1288) | MIC ([1]; daptomycin-resistant, ST 2015-0188, read-out: MIC S. aureus ST 2015 0188) | MIC ([1]; daptomycin-resistant, ST 2015-0989, read-out: MIC S. aureus ST 2015 0989) | MIC ([2]; E. faecalis clinical strain 015205261801, from urines, read-out: MIC Enterococcus 1801) | MIC ([2]; E. faecalis clinical strain 015206179901, from urines, read-out: MIC Enterococcus 9901) | MIC ([3]; E. faecium clinical strain 015 205731401, read-out: MIC Enterococcus 1401) | SMILES |
| --- | --- | --- | --- | --- | --- | --- | --- | --- | --- | --- | --- | --- | --- | --- | --- | --- | --- | --- | --- |
| > 256 µg/mL | 256 µg/mL (≈ 710 µM) | 256 µg/mL (≈ 710 µM) | 256 µg/mL (≈ 710 µM) | 256 µg/mL (≈ 710 µM) | 256 µg/mL (≈ 710 µM) | 256 µg/mL (≈ 710 µM) | 256 µg/mL (≈ 710 µM) | 256 µg/mL (≈ 710 µM) | 256 µg/mL (≈ 710 µM) | 256 µg/mL (≈ 710 µM) | 256 µg/mL (≈ 710 µM) | 69 °C | – | – | – | – | – | – | CCCCCCCCCCCC1OCC2O[C@H](OC)C(O)C(O)[C@@H]2O1 (stereo partly drawn) [Compound 1e, Methyl 4,6-O-Dodecylidene α-D-glucopyranoside] |
| – | 128 µg/mL (≈ 355 µM) | – | 64 µg/mL (≈ 178 µM) | 64 µg/mL (≈ 178 µM) | 64 µg/mL (≈ 178 µM) | 64 µg/mL (≈ 178 µM) | 64 µg/mL (≈ 178 µM) | 64 µg/mL (≈ 178 µM) | 64 µg/mL (≈ 178 µM) | 32 µg/mL (≈ 88.8 µM) | 32 µg/mL (≈ 88.8 µM) | 84 °C | 64 µg/mL (≈ 178 µM) | 64 µg/mL (≈ 178 µM) | 64 µg/mL (≈ 178 µM) | 8 µg/mL (≈ 22.2 µM) | 32 µg/mL (≈ 88.8 µM) | 16 µg/mL (≈ 44.4 µM) | CCCCCCCCCCCC1OCC2O[C@@H](OC)C(O)C(O)[C@@H]2O1 (stereo partly drawn) [Compound 1f, Methyl 4,6-O-Dodecylidene β-D-glucopyranoside] |
